From ChEMBL document CHEMBL1201862, “PubChem BioAssay data set” (2004)
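96-well plates; 48 h exposure; 5 concentrations. Endpoints by linear interpolation between flanking doses. Not reached: highest tested concentration assigned. GI50 = concentration required for 50% inhibition of growth.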 Active and inactive are the calls of the source. Rule as the data show it: active = GI50 up to about 1.1 µM and inactive = higher.

Experiments:
Assay in all cases: growth of human tumour cells (NCI), 48 h
EKVX = tested on: EKVX
SNB-19 = tested on: SNB-19
SF-539 = tested on: SF-539
A498 = tested on: A498
NCI-H522 = tested on: NCI-H522
SW-620 = tested on: SW-620
T47D = tested on: T47D
IGROV-1 = tested on: IGROV-1
NCI-H226 = tested on: NCI-H226
RPMI-8226 = tested on: RPMI-8226
LOX IMVI = tested on: LOX IMVI
HOP-62 = tested on: HOP-62
A549 = tested on: A549
OVCAR-4 = tested on: OVCAR-4
SNB-75 = tested on: SNB-75
MOLT-4 = tested on: MOLT-4
CAKI-1 = tested on: CAKI-1
PC-3 = tested on: PC-3
HCC 2998 = tested on: HCC 2998

Compound	GI50 (EKVX)	GI50 (SNB-19)	GI50 (SF-539)	GI50 (A498)	GI50 (NCI-H522)	GI50 (SW-620)	GI50 (T47D)	GI50 (IGROV-1)	GI50 (NCI-H226)	GI50 (RPMI-8226)	GI50 (LOX IMVI)	GI50 (HOP-62)	GI50 (A549)	GI50 (OVCAR-4)	GI50 (SNB-75)	GI50 (MOLT-4)	GI50 (CAKI-1)	GI50 (PC-3)	GI50 (HCC 2998)
Nc1ccc(S(=O)(=O)NCc2nccs2)cc1	17.3 µM (inactive)	29.1 µM (inactive)	19.1 µM (inactive)	17.7 µM (inactive)	16.6 µM (inactive)	30.5 µM (inactive)	24.1 µM (inactive)	23.4 µM (inactive)	22.2 µM (inactive)	25.8 µM (inactive)	19.9 µM (inactive)	36.8 µM (inactive)	27.9 µM (inactive)	29.3 µM (inactive)	23.2 µM (inactive)	23.2 µM (inactive)	28.4 µM (inactive)	30.1 µM (inactive)	–
Cc1cc(O)c2cc3c(O)c(O)ccc3cc2c1	2.12 µM (inactive)	0.615 µM (active)	0.822 µM (active)	3.12 µM (inactive)	0.789 µM (active)	0.53 µM (active)	1.75 µM (inactive)	1.51 µM (inactive)	1.23 µM (inactive)	0.326 µM (active)	1.35 µM (inactive)	1.29 µM (inactive)	1.14 µM (inactive)	0.536 µM (active)	0.488 µM (active)	1.03 µM (active)	2.08 µM (inactive)	0.302 µM (active)	0.817 µM (active)
COC(=O)n1c(=O)n(-c2ccccc2)c(=O)n1C(=O)Nc1ccccc1	> 100 µM (inactive)	> 100 µM (inactive)	–	> 100 µM (inactive)	> 100 µM (inactive)	> 100 µM (inactive)	> 100 µM (inactive)	> 100 µM (inactive)	> 100 µM (inactive)	96.4 µM (inactive)	> 100 µM (inactive)	> 100 µM (inactive)	> 100 µM (inactive)	3.42 µM (inactive)	> 100 µM (inactive)	> 100 µM (inactive)	> 100 µM (inactive)	> 100 µM (inactive)	> 100 µM (inactive)
COC1C(N(C)C)=C(c2ccccc2)C(=O)N2CCc3ccccc3C12 (configuration not stated)	> 100 µM (inactive)	> 100 µM (inactive)	> 100 µM (inactive)	> 100 µM (inactive)	> 100 µM (inactive)	> 100 µM (inactive)	> 100 µM (inactive)	> 100 µM (inactive)	> 100 µM (inactive)	–	> 100 µM (inactive)	> 100 µM (inactive)	> 100 µM (inactive)	> 100 µM (inactive)	> 100 µM (inactive)	79.1 µM (inactive)	> 100 µM (inactive)	> 100 µM (inactive)	–
c1cc2nnc1SCCSCCCSCCS2	> 100 µM (inactive)	56.8 µM (inactive)	20 µM (inactive)	> 100 µM (inactive)	> 100 µM (inactive)	> 100 µM (inactive)	> 100 µM (inactive)	> 100 µM (inactive)	> 100 µM (inactive)	> 100 µM (inactive)	> 100 µM (inactive)	35.2 µM (inactive)	> 100 µM (inactive)	34.6 µM (inactive)	5.83 µM (inactive)	> 100 µM (inactive)	> 100 µM (inactive)	> 100 µM (inactive)	> 100 µM (inactive)
CCOC(=O)C1CCCC1S(=O)(=O)c1ccc(C)cc1 (configuration not stated)	> 100 µM (inactive)	> 100 µM (inactive)	–	45.3 µM (inactive)	> 100 µM (inactive)	> 100 µM (inactive)	> 100 µM (inactive)	> 100 µM (inactive)	> 100 µM (inactive)	> 100 µM (inactive)	> 100 µM (inactive)	> 100 µM (inactive)	> 100 µM (inactive)	> 100 µM (inactive)	84.1 µM (inactive)	> 100 µM (inactive)	> 100 µM (inactive)	> 100 µM (inactive)	> 100 µM (inactive)
C[N+](C)(C)CCN(Cc1cccs1)c1ccccn1	–	> 100 µM (inactive)	> 100 µM (inactive)	> 100 µM (inactive)	40.8 µM (inactive)	> 100 µM (inactive)	> 100 µM (inactive)	> 100 µM (inactive)	> 100 µM (inactive)	> 100 µM (inactive)	> 100 µM (inactive)	> 100 µM (inactive)	68.9 µM (inactive)	> 100 µM (inactive)	59.8 µM (inactive)	–	> 100 µM (inactive)	> 100 µM (inactive)	> 100 µM (inactive)
Oc1cn(-c2ccc(Cl)cc2)nc1-c1n[nH]c(=S)n1-c1ccccc1	27.2 µM (inactive)	16.8 µM (inactive)	5.92 µM (inactive)	14 µM (inactive)	5.01 µM (inactive)	5.07 µM (inactive)	19.5 µM (inactive)	4.6 µM (inactive)	6.22 µM (inactive)	5.46 µM (inactive)	–	10 µM (inactive)	14.1 µM (inactive)	52.6 µM (inactive)	21.1 µM (inactive)	62.7 µM (inactive)	8.09 µM (inactive)	27.5 µM (inactive)	–
[O-][S@@+]1c2ccc3ccccc3c2N[C@@H]2[C@H]1[C@H]1C=C[C@@H]2C1	> 100 µM (inactive)	> 100 µM (inactive)	> 100 µM (inactive)	71.6 µM (inactive)	21.5 µM (inactive)	34 µM (inactive)	16.5 µM (inactive)	21.2 µM (inactive)	50.8 µM (inactive)	31.6 µM (inactive)	31.6 µM (inactive)	59.4 µM (inactive)	57.5 µM (inactive)	23.9 µM (inactive)	16.9 µM (inactive)	26.6 µM (inactive)	> 100 µM (inactive)	32.4 µM (inactive)	–
O=[N+]([O-])/C(C(Cl)=C(Cl)Cl)=C(\N1CCCCC1)n1nnc2ccccc21	8.47 µM (inactive)	20.9 µM (inactive)	17.3 µM (inactive)	19.2 µM (inactive)	20.3 µM (inactive)	19.1 µM (inactive)	33.3 µM (inactive)	16.2 µM (inactive)	20 µM (inactive)	17.2 µM (inactive)	16.7 µM (inactive)	22.2 µM (inactive)	22.6 µM (inactive)	47.1 µM (inactive)	25.6 µM (inactive)	0.443 µM (active)	15.3 µM (inactive)	17.6 µM (inactive)	–
CSc1ccc(/C=C/C(=O)c2nc3ccccc3[nH]2)cc1	17.8 µM (inactive)	16.1 µM (inactive)	4.45 µM (inactive)	13.6 µM (inactive)	12.2 µM (inactive)	9.29 µM (inactive)	3.95 µM (inactive)	30.3 µM (inactive)	13.6 µM (inactive)	3.02 µM (inactive)	14.5 µM (inactive)	24.3 µM (inactive)	18.2 µM (inactive)	14.1 µM (inactive)	13.2 µM (inactive)	3.02 µM (inactive)	2.26 µM (inactive)	12.3 µM (inactive)	10.7 µM (inactive)
[O-][S+](C(c1ccccc1)=P(c1ccccc1)(c1ccccc1)c1ccccc1)c1ccc(Cl)cc1 (configuration not stated)	27.3 µM (inactive)	–	60 µM (inactive)	11.1 µM (inactive)	11.8 µM (inactive)	23.6 µM (inactive)	7.83 µM (inactive)	21.8 µM (inactive)	55.7 µM (inactive)	6.98 µM (inactive)	20.6 µM (inactive)	25.6 µM (inactive)	–	17.1 µM (inactive)	60.4 µM (inactive)	29.1 µM (inactive)	60.5 µM (inactive)	23.2 µM (inactive)	28.4 µM (inactive)
Oc1cc(-c2ccccc2)cn2c1nc1ccccc12	> 94.2 µM (inactive)	3.45 µM (inactive)	2.59 µM (inactive)	11 µM (inactive)	0.243 µM (active)	0.544 µM (active)	1.5 µM (inactive)	1.43 µM (inactive)	> 25.4 µM (inactive)	2.3 µM (inactive)	1.12 µM (active)	2.4 µM (inactive)	1.73 µM (inactive)	4.23 µM (inactive)	> 36.3 µM (inactive)	3.44 µM (inactive)	2.91 µM (inactive)	3.85 µM (inactive)	4.68 µM (inactive)
O=c1[nH]nc(-c2ccccc2)n1/N=C\c1ccccc1	> 100 µM (inactive)	–	> 100 µM (inactive)	> 100 µM (inactive)	> 100 µM (inactive)	> 100 µM (inactive)	> 100 µM (inactive)	–	> 100 µM (inactive)	> 100 µM (inactive)	> 100 µM (inactive)	> 100 µM (inactive)	> 100 µM (inactive)	> 100 µM (inactive)	> 100 µM (inactive)	> 100 µM (inactive)	> 100 µM (inactive)	> 100 µM (inactive)	> 100 µM (inactive)
Cc1nc2ccc(NC(=S)Nc3ccccc3)cc2c(=O)n1-c1ccccc1	> 100 µM (inactive)	> 100 µM (inactive)	–	> 100 µM (inactive)	> 100 µM (inactive)	76.7 µM (inactive)	> 100 µM (inactive)	> 100 µM (inactive)	> 100 µM (inactive)	23.6 µM (inactive)	> 100 µM (inactive)	> 100 µM (inactive)	–	> 100 µM (inactive)	> 100 µM (inactive)	48.9 µM (inactive)	> 100 µM (inactive)	> 100 µM (inactive)	66.4 µM (inactive)
C/C(=N\Nc1nc2ccccc2[nH]1)c1cnccn1	0.491 µM (active)	2.72 µM (inactive)	0.713 µM (active)	1.98 µM (inactive)	0.169 µM (active)	0.4 µM (active)	0.437 µM (active)	0.139 µM (active)	0.441 µM (active)	0.533 µM (active)	0.361 µM (active)	0.619 µM (active)	1.88 µM (inactive)	0.617 µM (active)	3.61 µM (inactive)	0.232 µM (active)	0.447 µM (active)	3.92 µM (inactive)	19.6 µM (inactive)
